These results are taken from patent US6444670B2 (Wyeth, priority 1998, dated 2002).

Series [1] concerns the target T1, Human recombinant PTP1B (hPTP1B) (Homo sapiens, UniProt P18031).
T1 construct: made in house
T1 sequence (P18031 1-435): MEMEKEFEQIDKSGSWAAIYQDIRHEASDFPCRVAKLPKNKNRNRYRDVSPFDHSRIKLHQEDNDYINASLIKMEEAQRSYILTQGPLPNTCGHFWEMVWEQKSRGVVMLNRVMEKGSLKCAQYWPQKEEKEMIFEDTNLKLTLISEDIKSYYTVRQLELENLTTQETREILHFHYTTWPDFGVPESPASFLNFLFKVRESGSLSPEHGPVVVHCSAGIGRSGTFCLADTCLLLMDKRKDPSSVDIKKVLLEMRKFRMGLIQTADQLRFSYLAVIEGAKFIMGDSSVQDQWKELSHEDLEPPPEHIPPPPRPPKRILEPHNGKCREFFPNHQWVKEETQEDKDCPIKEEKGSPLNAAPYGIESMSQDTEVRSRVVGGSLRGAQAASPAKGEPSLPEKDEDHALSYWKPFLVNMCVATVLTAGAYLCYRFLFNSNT
The series is classed as biochemical.

In series [2] the test system is rat hepatic microsomal PTPases. Conditions: 50 μM compound.
The next series concerns diabetic (ob/ob) mice. In words: Blood glucose lowering in diabetic (ob/ob) mice. The conditions noted are these: plasma glucose, dose 25 mg/Kg, (a) = no significant activity (p < 0.05) at this dose. It counts as in vivo, mouse. An excerpt: The procedures used and results obtained are briefly described below.
The non-insulin dependent diabetic (NIDDM) syndrome can be typically characterizes by obesity, hyperglycemia, abnormal insulin secretion, hyperinsulinemia and insulin resistance.
In each test procedure, mice [Male or female ob/ob (C57 B1/6J) and their lean litermates (ob/+ or +/+, Jackson Laboratories) ages 2 to 5 months (10 to 65 g)] of a similar age were randomized according to body weight into 4 groups of 10 mice. The mice were housed 5 per cage and are maintained on normal rodent chow with water ad libitum. Mice received test compound daily by gavage (suspended in 0.5 ml of 0.5% methyl cellulose); dissolved in the drinking water; or admixed in the diet. The dose of compounds given ranges from 2.5 to 200 mg/kg body weight/day. The dose is calculated based on the fed weekly body weight and is expressed as active moiety. […] Control mice received vehicle only.
On the morning of Day 4, 7 or 14 two drops of blood (approximetly 50 ul) were collected into sodium fluoride containing tubes either from the tail vein or after decapitation. For those studies in which the compound was administered daily by gavage the blood samples were collected 0 and 4 hours after compound administration. The plasma was isolated by centrifugation and the concentration of glucose is measured enzymatically on an Abbott V. P. Analyzer.
For each mouse, the percentage change in plasma glucose on Day 4, 7 or 14 is calculated relative to the mean plasma glucose of the vehicle treated mice. Analysis of variance followed by Dunett's Comparison Test (one-tailed) are used to estimate the significant difference between the plasma glucose values from the control group and the individual compound treated groups (CMS SAS Release 5.18).

Broadly, the IC50 is the concentration needed to halve the response being measured. In general, melting point refers to the temperature, or range, at which the solid turns liquid. The compound `Cc1sc2c(Br)c3ccccc3c(-c3cc(Br)c(O)c(Br)c3)c2c1C` [Example 9, 2,6-Dibromo-4-(9-bromo-2,3-dimethyl-naphtho[2,3-b]thiophen-4-yl)-phenol] displayed a melting point of 172 to 174 °C. The IC50 in series [1] was 0.539 µM. The “% Change from Control” value in series [2] was −49.80%.

With `Cc1c(CN2CCOCC2)sc2c(Br)c3ccccc3c(-c3cc(Br)c(O)c(Br)c3)c12` [Example 19, 2,6-Dibromo-4-(9-bromo-3-methyl-2-morpholin-4-ylmethyl-naphtho[2,3-b]thiophen-4-yl)-phenol], the melting point is 237 to 240 °C. The IC50 in series [1] was determined as 0.697 µM. For the same compound, the “% Change from Control” value in series [2] is reported as −30.40%.

`Cc1sc2c(Br)c3ccccc3c(-c3ccc(O)c([N+](=O)[O-])c3)c2c1C` [Example 20, 4-(9-Bromo-2,3-dimethyl-naphtho[2,3-b]thiophen-4-yl)-2-nitro-phenol] displayed a melting point of 183 to 185 °C. In addition, the “% Change from Control” value in series [2] was determined as 2.13%.

Compound `Cc1sc2c(Br)c3ccccc3c(-c3cc(Br)c(O)c([N+](=O)[O-])c3)c2c1C` [Example 21, 2-Bromo-4-(9-bromo-2,3-dimethyl-naphtho[2,3-b]thiophen-4-yl)-6-nitro-phenol] displayed a melting point of 129 to 130 °C. In series [1], the IC50 amounted to 0.381 µM. Moreover, in series [2], the “% Change from Control” value was −63.12%.

`Cc1sc2c(Br)c3ccccc3c(-c3ccc(O)c(N)c3)c2c1C` [Example 22, 2-Amino-4-(9-bromo-2,3-dimethyl-naphtho[2,3-b]thiophen-4-yl)-phenol] returned a melting point of 173 to 175 °C. For the same compound, in series [2], the “% Change from Control” value is on record as −28.57%.

`Cc1sc2c(Br)c3ccccc3c(-c3cc(Br)c(O[C@H](C)C(=O)O)c(Br)c3)c2c1C` [Example 30, (R)-2-[2,6-Dibromo-4-(9-bromo-2,3-dimethylnaptho[2,3-b]thien-4-yl)-phenoxy]-propanoic acid] displayed a melting point of 224 to 225 °C. In addition, in series [1], the IC50 amounted to 0.869 µM. Further, the “% Change from Control” value in series [2] is −60.32%.

`Cc1sc2c(Br)c3ccccc3c(-c3cc(Br)c(O[C@@H](CCc4ccccc4)C(=O)O)c(Br)c3)c2c1C` [Example 31, (S)-2-[2,6-Dibromo-4-(9-bromo-2,3-dimethyl-naphtho[2,3-b]thiophen-4-yl)-phenoxy]-4-phenyl-butyric acid]: the melting point lay within 176 to 177 °C. Further, in series [1], the IC50 came to 0.049 µM. Also, the “% Change from Control” value in series [2] is reported as −63.42%.

The compound `Cc1sc2c(Br)c3ccccc3c(-c3cc(Br)c(O[C@H](Cc4ccccc4)C(=O)O)c(C4CCCC4)c3)c2c1C` [Example 48] gave a melting point of 167 to 168.5 °C. In addition, the IC50 in series [1] amounted to 0.083 µM. In the series with diabetic (ob/ob) mice, the “% Change Glucose from Vehicle” value is −20.1 ^ %. For the same compound, the “% Change from Control” value in series [2] is reported as −44.69%.

`Cc1sc2c(Br)c3ccccc3c(-c3cc(C(C)C)c(OCC(=O)O)c(C(C)C)c3)c2c1C` [Example 53, [4-(9-Bromo-2,3-dimethyl-naphtho[2,3-b]thiophen-4-yl)-2,6-diisopropyl-phenoxy]-acetic acid] had a melting point of 228 to 231 °C. In addition, in series [1], the IC50 was 0.204 µM. The “% Change from Control” value in series [2] is −81.83%.

Consider `COc1c(Br)cc(-c2c3ccccc3c(Br)c3sc(C)c(C)c23)cc1NCC(=O)O` [Example 60, [3-Bromo-5-(9-bromo-2,3-dimethyl-naphtho[2,3-b]thiophen-4-yl)-2-methoxy-phenylamino]-acetic Acid], for which the melting point is > 190 °C (dec.). Moreover, the IC50 in series [1] stood at 1.51 µM.
